According to patent US20210196673A1 (priority 2018, published 2021):
Values after ≈ are worked out from the molar mass of the structure shown. Where two headings read alike, the source gives them in different places.

Experiments:
[1] = Stability of powder and liquid forms; format: physicochemical; conditions: for stability of powder form on storage: 5° C.
H1N1 virus [2] = format: cell-based, influenza A virus
H1N1 virus [3] = format: cell-based, influenza A virus; remark: listed apart in the source
H1N1 virus [4] = format: cell-based, influenza A virus; remark: listed apart in the source
MDCK cells = experiment: Cell viability, MTT assay; format: cell-based; conditions: 1 hour incubation
Description: Cell Viability: This experiment tested if EC16 formulations were associated with cytotoxicity in MDCK cells. MDCK cells were cultured in a 96 well plate until confluent. MEM serum free medium, MEM medium with 10% carrier and 20% carrier (carrier controls), or MEM medium containing 0.1% EC16 and 10% or 20% carrier was added to the wells followed by a 1 hour incubation at 35° C. with 5% CO2. The medium was then changed to 200 μl fresh MEM serum free medium with 0.2 μg/ml trypsin in each well and incubated overnight under the same condition. The plate was removed from the cell culture incubator and an MTT assay was performed according to a method described previously (Yamamoto, T., et al., Anticancer Research, 24:3065-3073 (2004)).

H1N1 virus [5] = test system: H1N1 virus
H1N1 virus [6] = test system: H1N1 virus; remark: listed apart in the source
[7] = target: SARS-CoV nucleocapsid (N) protein (Severe acute respiratory syndrome coronavirus, UniProt P59595); conditions: cited from earlier work
Chain of SARS-CoV nucleocapsid (N) protein (P59595 whole entry, looked up): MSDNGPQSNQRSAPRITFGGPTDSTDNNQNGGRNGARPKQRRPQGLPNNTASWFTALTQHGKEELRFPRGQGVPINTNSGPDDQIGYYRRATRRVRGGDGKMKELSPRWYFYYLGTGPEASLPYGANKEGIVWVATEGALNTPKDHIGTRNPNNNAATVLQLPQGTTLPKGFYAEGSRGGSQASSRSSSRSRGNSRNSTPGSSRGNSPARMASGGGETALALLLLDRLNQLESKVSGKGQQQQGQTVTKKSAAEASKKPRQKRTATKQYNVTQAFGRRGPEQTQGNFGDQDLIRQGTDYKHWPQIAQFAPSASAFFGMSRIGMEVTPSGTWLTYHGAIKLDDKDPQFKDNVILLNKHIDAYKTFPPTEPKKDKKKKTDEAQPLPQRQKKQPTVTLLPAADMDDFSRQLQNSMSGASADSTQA

[8] = target: SARS-CoV 3C-like protease (3CLPro) (Severe acute respiratory syndrome coronavirus, UniProt P0C6X7); conditions: cited from earlier work
Vero cells = experiment: Primary CPE assay in Vero cells (cytotoxicity, CC50); format: cell-based
SARS-CoV-2 [9] = experiment: Secondary VYR (virus yield reduction) assay in Caco-2 cells; format: cell-based
Description: The secondary VYR assay in Caco-2 cells: Near-confluent cell culture monolayers of Caco-2 cells were prepared in 96-well disposable microplates the day before testing. Cells were maintained in MEM supplemented with 10% FBS. The same medium was used for antiviral assays and FBS was reduced to 2%, supplemented with 50-μg/ml gentamicin. EGCG was dissolved in serum-free MEM in a series of 2×dilutions from 100 μg/ml to 0.78 μg/ml. The EGCG diliutions were mixed and incubated with SARS-CoV-2 at 200 CCID50 (50% cell culture infectious dose) in 0.1 ml volume for 1 h prior to adding to the cell culture for 1 h absorption. Following absorption, the unabsorbed SARS-CoV-2 along with medium/EGCG was removed and fresh MEM was added to the cell culture for viral yield detection in comparison to untreated infection control. Five microwells were used per dilution: three for infected cultures and two for uninfected toxicity cultures. Controls for the experiment consist of six microwells that were infected and not treated (virus controls) and six that were untreated and uninfected (cell controls) on every plate. Medium devoid of virus was placed in toxicity control wells and cell control wells. Plates were incubated at 37° C. with 5% CO2 for 72 hours. A sample of supernatant was taken from each infected well (three replicate wells were pooled) and tested immediately. To evaluate toxicity, the plates were stained with 0.011% neutral red dye for approximately two hours at 37° C. in a 5% CO2 incubator. The neutral red medium was removed by complete aspiration, and the cells were rinsed 1× with phosphate buffered solution (PBS) to remove residual dye. The PBS is completely removed, and the incorporated neutral red was eluted with 50% Sorensen's citrate buffer/50% ethanol for at least 30 minutes. As larger the number of viable cells present in the wells, when the neutral red dye penetrated into the living cells, the more intense the red color appeared. The dye content in each well was quantified using a spectrophotometer at 540 nm wavelength. The dye content in each set of wells was converted to a percentage of dye present in untreated control wells using a Microsoft Excel computer-based spreadsheet and normalized based on the virus control. The 50% cytotoxic (CC50, cell-inhibitory) concentrations were then calculated by regression analysis.
The VYR test indicates how much EGCG inhibits virus entry and replication. Virus yielded in the presence of EGCG was titrated and compared to virus titers from the untreated virus controls. Titration of the viral samples (collected as described in the paragraph above) was performed by endpoint dilution (Reed-Muench method). Serial 1/10 dilutions of virus were made and plated into 4 replicate wells containing fresh cell monolayers of Vero 76 cells. Plates were then incubated, and cells were scored for the presence or absence of virus after distinct CPE was observed. The TCID50 values were calculated using the Reed-Muench method. The 90% (one log10) effective concentration (EC90) was calculated by regression analysis by plotting the log10 of the inhibitor concentration versus log10 of virus produced at each concentration. The quotient of CC50 divided by EC90 gave the selectivity index (SI) value. Compounds showing SI values ≥10 are considered active.

[10] = target: transmembrane protease serine 2 (TMPRSS2) (Homo sapiens, UniProt O15393); conditions: in vitro study; cited from earlier work
Chain of transmembrane protease serine 2 (TMPRSS2) (O15393 whole entry): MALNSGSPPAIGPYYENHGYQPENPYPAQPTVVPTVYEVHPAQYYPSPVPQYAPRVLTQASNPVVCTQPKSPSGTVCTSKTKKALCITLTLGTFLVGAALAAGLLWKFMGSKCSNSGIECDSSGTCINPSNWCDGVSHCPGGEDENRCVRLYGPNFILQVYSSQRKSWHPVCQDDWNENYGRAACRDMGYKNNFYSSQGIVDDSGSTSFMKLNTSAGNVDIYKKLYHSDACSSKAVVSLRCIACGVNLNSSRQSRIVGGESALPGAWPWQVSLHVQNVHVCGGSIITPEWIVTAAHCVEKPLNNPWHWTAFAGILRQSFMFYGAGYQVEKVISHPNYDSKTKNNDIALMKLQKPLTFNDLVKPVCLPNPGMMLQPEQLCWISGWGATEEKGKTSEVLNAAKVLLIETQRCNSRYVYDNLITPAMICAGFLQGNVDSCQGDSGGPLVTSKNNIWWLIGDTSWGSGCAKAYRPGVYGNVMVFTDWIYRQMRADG

influenza virus = conditions: cited from earlier work
SARS-CoV-2 [11] = experiment: Primary CPE assay in Vero cells (antiviral)
[12] = EGCG 50 μg/ml (0.005%), Caco-2 cells
[13] = EGCG 100 μg/ml (0.01%), Caco-2 cells

## (−)-epigallocatechin-3-gallate-palmitate [EC16]
[1]
  stability in dry powder form: stable
  stability of powder form on storage: stable at 5 °C for two years
[1]; liquid formulations
  stability in proper liquid formulations: stable
H1N1 virus [2]; 0.01% EC16 in 10% carrier, 1 minute contact, n=3
  H1N1 infectivity, % of control: 20.5%±17.1
H1N1 virus [2]; 0.01% EC16 in 20% carrier, separate experiments
  H1N1 infectivity, % of control: 7.3%±9.2
H1N1 virus [2]; 0.1% EC16 in 10% carrier, 1 minute contact, first three replicates
  H1N1 infectivity, % of control: 6.1%±3.0
H1N1 virus [2]; 0.1% EC16 in 10% carrier, additional three replicate experiments
  H1N1 infectivity, % of control: 3.8%±1.5
H1N1 virus [2]; 0.1% EC16 in 10% carrier, overall mean (n=6)
  H1N1 infectivity, % of control: 5.0%±2.4
H1N1 virus [2]; 0.1% EC16 in 20% carrier, 1 minute contact
  H1N1 infectivity, % of control: 2.4%±1.1
H1N1 virus [3]; 0.05% EC16, washed and 1 hour without EC16
  cells protected from H1N1 infection: 90%
H1N1 virus [3]; 0.1% EC16, 2 hours after first application, washed and 1 hour without EC16
  block of H1N1 infection: almost completely blocked
H1N1 virus [4]
  viral TCID50, % of control: 15.4%±15.2
MDCK cells; 0.1% EC16 in 10% carrier
  cell viability (MTT) versus MEM control: not statistically different from the MEM control
MDCK cells; 0.1% EC16 in 20% carrier
  cell viability (MTT) versus MEM control: not statistically different from the MEM control
H1N1 virus [5]; 0.01% EC16 in 10% carrier, 1 hour pre-treatment, n=4
  viral titer (viability), % of control: 100%
H1N1 virus [5]; 0.01% EC16 in 20% carrier, 1 hour pre-treatment
  infectivity, % of control: 2.3%±0.9
H1N1 virus [5]; 0.1% EC16 in 10% carrier, 1 hour pre-treatment
  infectivity, % of control: 10.5%±3.6
H1N1 virus [5]; 0.1% EC16 in 20% carrier
  reduction in titer: 42 fold
H1N1 virus [5]; 0.1% EC16 in 20% carrier, 1 hour pre-treatment, n=7
  infectivity, % of control: 2.4%±1.6
H1N1 virus [5]; EC16 0 to 0.1% in 2% DMSO instead of carrier
  viral titer in comparison to control: did not result in a statistically significant difference
H1N1 virus [6]; 0.01% EC16 in 10% carrier, 10 minutes
  remaining viability (infectivity), mean: 48.4%±46.4
H1N1 virus [6]; 0.01% EC16 in 20% carrier, 30 minutes
  infectivity, mean % of control: 7.6%±7.2
H1N1 virus [6]; 0.1% EC16 in 10% carrier, 10 minutes
  infectivity, mean % of control: 9.5%±1.4
H1N1 virus [6]; 0.1% EC16 in 20% carrier, 10 minutes
  infectivity, mean % of control: 12.1%±5.8
H1N1 virus [6]; 0.1% EC16 in 20% carrier, 30 minutes
  infectivity, mean % of control: 0.9%±0.7

## O=C(O[C@@H]1Cc2c(O)cc(O)cc2O[C@H]1c1cc(O)c(O)c(O)c1)c1cc(O)c(O)c(O)c1 [GCG, gallocatechin gallate]
[7]
  inhibitory effect against SARS-CoV nucleocapsid (N) protein: remarkable inhibitory effect
[8]
  inhibition of SARS-CoV 3C-like protease: significantly inhibited

## O=C(O[C@@H]1Cc2c(O)cc(O)cc2O[C@@H]1c1cc(O)c(O)c(O)c1)c1cc(O)c(O)c(O)c1 [EGCG, (−)-epigallocatechin-3-gallate]
Vero cells; neutral red (NR) readout
  CC50 (NR): 2.3 µg/mL (≈ 5.02 µM)
Vero cells; visual (VIS) readout
  CC50 (VIS): 3.2 µg/mL (≈ 6.98 µM)
SARS-CoV-2 [9]; Caco-2 cells, value of b285
  concentration that inhibited 90% of viral yield (EC90): 28 µg/mL
SARS-CoV-2 [9]; [12]
  reduction in virus titer: 1.8 log 10
  reduction of viral yield: 98.41%
SARS-CoV-2 [9]; [13]
  reduction in virus titer: > 3.6 log 10
  reduction of viral yield: > 99.975%
SARS-CoV-2 [9]; EGCG at or lower than 25 μg/ml (0.0025%), Caco-2 cells
  antiviral activity: the activity was not detected
SARS-CoV-2 [9]; concentration 0.78 μg/ml
  Viral titer of EGCG treated TCID50 values: 5.3 lon10
SARS-CoV-2 [9]; concentration 1.56 μg/ml
  Viral titer of EGCG treated TCID50 values: 5.0 lon10
SARS-CoV-2 [9]; concentration 3.13 μg/ml
  Viral titer of EGCG treated TCID50 values: 5.0 lon10
SARS-CoV-2 [9]; concentration 6.25 μg/ml
  Viral titer of EGCG treated TCID50 values: 5.5 lon10
SARS-CoV-2 [9]; concentration 12.5 μg/ml
  Viral titer of EGCG treated TCID50 values: 5.3 lon10
SARS-CoV-2 [9]; concentration 25 μg/ml
  Viral titer of EGCG treated TCID50 values: 5.0 lon10
SARS-CoV-2 [9]; concentration 50 μg/ml
  Viral titer of EGCG treated TCID50 values: 3.5 lon10
SARS-CoV-2 [9]; concentration 100 μg/ml
  Viral titer of EGCG treated TCID50 values: <1.7 lon10
SARS-CoV-2 [9]; selectivity index
  SIgo (CC50/EC90): > 23
[1]; aqueous solution
  stability in aqueous solution: not stable
[1]
  stability in dry powder form: stable
  stability of powder form on storage: stable at 5 °C for two years
Caco-2 cells; Caco-2 cells, neutral red, value of b285
  CC50 (cytotoxicity): > 100 µg/mL
Caco-2 cells; Neutral Red (Toxicity) assay, value of b289
  CC50: > 100 µg/mL
[10]
  inhibition of TMPRSS2: inhibited TMPRSS2
[8]
  inhibition of 3C^pro activity: 80%
  inhibition of SARS-CoV 3C-like protease: significantly inhibited
Influenza virus; direct contact of EGCG with virus, cell culture
  effect of direct contact with influenza virus: inactivation of viral infectivity
Influenza virus; pre-incubation of cells with EGCG, no contact with the virus
  anti-viral activity after pre-incubation of cells: does not show anti-viral activity
SARS-CoV-2 [11]; neutral red (NR) readout
  EC50, inhibition of CPE (NR): 0.27 µg/mL
SARS-CoV-2 [11]; visual (VIS) readout
  EC50, inhibition of CPE (VIS): 0.23 µg/mL
